Measured values: patent publication US20170202792A1, “METHOD FOR TREATING TAU-ASSOCIATED DISEASES” (NATIONAL TAIWAN NORMAL UNIVERSITY, priority 2016, published 2017)

Test system: SH-SY5Y tauRD-DsRed cells
Assay: Neurite outgrowth in SH-SY5Y tauRD-DsRed cells (TUBB3 staining)
Assay type: cell-based, human
Conditions: 10 μM, pre-treated 8 hours, doxycycline 7 days; untreated = 100%
Method: We used SH-SY5Y human cells expressing a DsRed-tagged proaggregation mutant (ΔK280) of the C-terminal repeat domain of tau (tauRD-Gln^244-Glu^372 of the longest tau^441 isoform). The recombinant tauRD-DsRed construct was under the control of a tetracycline-regulated, hybrid human cytomegalovirus (CMV)/TetO2 promoter that can be induced by adding doxycycline. The cell lines were grown in medium containing blasticidin (5 μg/mL) and hygromycin (100 μg/mL).
SH-SY5Y tauRD-DsRed cells were seeded in 6-well plates (1×10^5/well) in a medium containing all-trans retinoic acid (10 μM, Sigma). After 48 hours of incubation, cells were pre-treated with 10 μM Congo red and 10 μM compound (I) for 8 hours; after which, tauRD-DsRed expression was induced with 1μg/mL doxycycline for 7 days. The cells were then fixed in 4% paraformaldehyde, permeabilized with 0.1% Triton X-100, blocked in 3% BSA, and then stained with the primary antibody anti-TUBB3 (against neuronal Class III β-tubulin) (1:1000; Covance) and with a secondary anti-rabbit Alexa Fluor® 555 antibody (1:500; Molecular Probes). Nuclei were counterstained with 4′,6-diamidino-2-phenylindole (DAPI). The total outgrowth in the untreated, Congo red-treated, and compound (I)-treated cells was assessed using MetaXpress image acquisition and analysis software.

In the case of `Nc1c(/N=N/c2ccc(-c3ccc(/N=N/c4cc(S(=O)(=O)O)c5ccccc5c4N)cc3)cc2)cc(S(=O)(=O)O)c2ccccc12` [Congo red, reference compound], the “neurite growth relative to untreated cells” value is reported as 110%.
